Reference: US5593984A, “Cephalosporin derivatives” (Yuhan Corporation, priority 1992, dated 1997)
≈ marks a conversion by molar mass, not a printed value.

What was measured:
Assay type in all cases: cell-based
[1] = tested on: E. coli No. 29; assay: MIC by agar dilution, E. coli No. 29; details: Escherichia coli, 17 h; E. coli No. 29; agar dilution, Mueller-Hinton agar; read-out: Minimal Inhibitory Concentration (MIC)
Outline: (§1)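 Medium: Mueller-Hinton agar with compound in doubling dilutions. Inoculum: 10^6 CFU/ml. Incubation: 35°-37° C. for 17±1 hours.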

[2] = tested on: M. morganii DY-1; assay: MIC by agar dilution, M. morganii DY-1; details: Morganella morganii, DY1, 17 h; M. morganii DY-1; agar dilution, Mueller-Hinton agar; read-out: Minimal Inhibitory Concentration (MIC)
Outline: as §1

[3] = tested on: Ent. cloacae IFO 13535; assay: MIC by agar dilution, Ent. cloacae IFO 13535; details: Enterobacter cloacae, IFO13535, 17 h; Ent. cloacae IFO 13535; agar dilution, Mueller-Hinton agar; read-out: Minimal Inhibitory Concentration (MIC)
Outline: as §1

[4] = tested on: K. pneumoniae NCTC 9632; assay: MIC by agar dilution, K. pneumoniae NCTC 9632; details: Klebsiella pneumoniae, NCTC9632, 17 h; K. pneumoniae NCTC 9632; agar dilution, Mueller-Hinton agar; read-out: Minimal Inhibitory Concentration (MIC)
Outline: as §1

[5] = tested on: Ps. aeruginosa DY-2; assay: MIC by agar dilution, Ps. aeruginosa DY-2; details: Pseudomonas aeruginosa, DY2, 17 h; Ps. aeruginosa DY-2; agar dilution, Mueller-Hinton agar; read-out: Minimal Inhibitory Concentration (MIC)
Outline: as §1

[6] = tested on: E. coli NIHJ JC-2; assay: MIC by agar dilution, E. coli NIHJ JC-2; details: Escherichia coli, NIHJJC2, 17 h; E. coli NIHJ JC-2; agar dilution, Mueller-Hinton agar; read-out: Minimal Inhibitory Concentration (MIC)
Outline: as §1

[7] = tested on: P. vulgaris NCTC 8313; assay: MIC by agar dilution, P. vulgaris NCTC 8313; details: Proteus vulgaris, NCTC8313, 17 h; P. vulgaris NCTC 8313; agar dilution, Mueller-Hinton agar; read-out: Minimal Inhibitory Concentration (MIC)
Outline: as §1

[8] = tested on: Ps. aeruginosa NCTC 10490; assay: MIC by agar dilution, Ps. aeruginosa NCTC 10490; details: Pseudomonas aeruginosa, NCTC10490, 17 h, Mueller-Hinton agar, read-out: Minimal Inhibitory Concentration (MIC)
Outline: as §1

[9] = tested on: S. epidermidis ATCC 12228; assay: MIC by agar dilution, S. epidermidis ATCC 12228; details: Staphylococcus epidermidis, ATCC12228, 17 h; S. epidermidis ATCC 12228; agar dilution, Mueller-Hinton agar; read-out: Minimal Inhibitory Concentration (MIC)
Outline: as §1

[10] = tested on: Ent. aerogenes IFO 12979; assay: MIC by agar dilution, Ent. aerogenes IFO 12979; details: Klebsiella aerogenes, IFO12979, 17 h, Mueller-Hinton agar, read-out: Minimal Inhibitory Concentration (MIC)
Outline: as §1

[11] = tested on: Staph. aureus Smith; assay: MIC by agar dilution, Staph. aureus Smith; details: Staphylococcus aureus, 17 h, Mueller-Hinton agar, read-out: Minimal Inhibitory Concentration (MIC)
Outline: as §1

[12] = tested on: Staph. aureus C-5216; assay: MIC by agar dilution, Staph. aureus C-5216; details: Staphylococcus aureus, C5216, 17 h, Mueller-Hinton agar, read-out: Minimal Inhibitory Concentration (MIC)
Outline: as §1

[13] = tested on: E. coli DY-1; assay: MIC by agar dilution, E. coli DY-1; details: Escherichia coli, DY1, 17 h; E. coli DY-1; agar dilution, Mueller-Hinton agar; read-out: Minimal Inhibitory Concentration (MIC)
Outline: as §1

[14] = tested on: Staph. aureus C-5113; assay: MIC by agar dilution, Staph. aureus C-5113; details: Staphylococcus aureus, C5113, 17 h, Mueller-Hinton agar, read-out: Minimal Inhibitory Concentration (MIC)
Outline: as §1

[15] = tested on: Prov. stuartii IFO 12930; assay: MIC by agar dilution, Prov. stuartii IFO 12930; details: Providencia stuartii, IFO12930, 17 h, Mueller-Hinton agar, read-out: Minimal Inhibitory Concentration (MIC)
Outline: as §1

[16] = tested on: B. subtilis ATCC 6633; assay: MIC by agar dilution, B. subtilis ATCC 6633; details: Bacillus subtilis, ATCC6633, 17 h; B. subtilis ATCC 6633; agar dilution, Mueller-Hinton agar; read-out: Minimal Inhibitory Concentration (MIC)
Outline: as §1

[17] = tested on: Staph. aureus C-57; assay: MIC by agar dilution, Staph. aureus C-57; details: Staphylococcus aureus, C57, 17 h, Mueller-Hinton agar, read-out: Minimal Inhibitory Concentration (MIC)
Outline: as §1

[18] = tested on: Ser. marcescens IFO 12648; assay: MIC by agar dilution, Ser. marcescens IFO 12648; details: Serratia marcescens, IFO12648, 17 h; Ser. marcescens IFO 12648; agar dilution, Mueller-Hinton agar; read-out: Minimal Inhibitory Concentration (MIC)
Outline: as §1

[19] = tested on: Ps. aeruginosa ATCC 10145; assay: MIC by agar dilution, Ps. aeruginosa ATCC 10145; details: Pseudomonas aeruginosa, ATCC10145, 17 h, Mueller-Hinton agar, read-out: Minimal Inhibitory Concentration (MIC)
Outline: as §1

[20] = tested on: Staph. aureus ATCC 6538P; assay: MIC by agar dilution, Staph. aureus ATCC 6538P; details: Staphylococcus aureus, ATCC6538P, 17 h; Staph. aureus ATCC 6538P; agar dilution, Mueller-Hinton agar; read-out: Minimal Inhibitory Concentration (MIC)
Outline: as §1

| MIC [1] [µg/mL] | MIC [2] [µg/mL] | MIC [3] [µg/mL] | MIC [4] [µg/mL] | MIC [5] [µg/mL] | MIC [6] [µg/mL] | MIC [7] [µg/mL] | MIC [8] [µg/mL] | MIC [9] [µg/mL] | MIC [10] [µg/mL] | MIC [11] [µg/mL] | MIC [12] [µg/mL] | MIC [13] [µg/mL] | MIC [14] [µg/mL] | MIC [15] [µg/mL] | MIC [16] [µg/mL] | MIC [17] [µg/mL] | MIC [18] [µg/mL] | MIC [19] [µg/mL] | MIC [20] [µg/mL] | SMILES |
| --- | --- | --- | --- | --- | --- | --- | --- | --- | --- | --- | --- | --- | --- | --- | --- | --- | --- | --- | --- | --- |
| 0.012 (≈ 0.0222 µM) | 0.025 (≈ 0.0462 µM) | 0.2 (≈ 0.369 µM) | 0.025 (≈ 0.0462 µM) | 3.13 (≈ 5.78 µM) | 0.025 (≈ 0.0462 µM) | ≤ 0.006 | 0.39 (≈ 0.72 µM) | 0.1 (≈ 0.185 µM) | 0.025 (≈ 0.0462 µM) | 0.39 (≈ 0.72 µM) | 1.56 (≈ 2.88 µM) | 0.012 (≈ 0.0222 µM) | 0.78 (≈ 1.44 µM) | 0.012 (≈ 0.0222 µM) | 0.2 (≈ 0.369 µM) | 12.5 (≈ 23.1 µM) | 0.05 (≈ 0.0923 µM) | 1.56 (≈ 2.88 µM) | 0.2 (≈ 0.369 µM) | CCO/N=C(\C(=O)N[C@@H]1C(=O)N2C(C(=O)[O-])=C(C[n+]3ccn4cccc4c3C)CS[C@H]12)c1csc(N)n1 [Ex. 41, 7-β-[(Z)-2-(2-aminothiazol-4-yl)-2-ethoxyiminoacetamido]-3-(1-methylpyrrolo[1,2-a]pyrazinium-2-yl)methyl-3-cephem-4-carboxylate] |
| ≤ 0.006 | 0.012 (≈ 0.022 µM) | 0.05 (≈ 0.0918 µM) | 0.012 (≈ 0.022 µM) | 1.56 (≈ 2.86 µM) | ≤ 0.006 | 0.012 (≈ 0.022 µM) | 0.1 (≈ 0.184 µM) | 0.05 (≈ 0.0918 µM) | ≤ 0.006 | 0.78 (≈ 1.43 µM) | 0.78 (≈ 1.43 µM) | ≤ 0.006 | 1.56 (≈ 2.86 µM) | ≤ 0.006 | 0.1 (≈ 0.184 µM) | 12.5 (≈ 23 µM) | 0.012 (≈ 0.022 µM) | 0.78 (≈ 1.43 µM) | 0.39 (≈ 0.716 µM) | CO/N=C(\C(=O)N[C@@H]1C(=O)N2C(C(=O)[O-])=C(C[n+]3ccn4c(CO)ccc4c3)CS[C@H]12)c1nsc(N)n1 [Ex. 50, 7-β-[(Z)-2-(5-amino-1,2,4-thiadiazol-3-yl)-2-methoxyiminoacetamido]-3-(6-hydroxymethylpyrrolo[1,2-a]-pyrazinium-2-yl)methyl-3-cephem-4-carboxylate] |
| 0.2 (≈ 0.335 µM) | 1.56 (≈ 2.61 µM) | 3.13 (≈ 5.24 µM) | 0.78 (≈ 1.3 µM) | 100 (≈ 167 µM) | 0.78 (≈ 1.3 µM) | 0.05 (≈ 0.0837 µM) | 25 (≈ 41.8 µM) | 0.2 (≈ 0.335 µM) | 0.2 (≈ 0.335 µM) | 3.13 (≈ 5.24 µM) | 6.25 (≈ 10.5 µM) | 0.1 (≈ 0.167 µM) | 1.56 (≈ 2.61 µM) | 0.2 (≈ 0.335 µM) | 0.2 (≈ 0.335 µM) | 100 (≈ 167 µM) | 0.78 (≈ 1.3 µM) | 50 (≈ 83.7 µM) | 0.39 (≈ 0.652 µM) | CO/N=C(\C(=O)N[C@@H]1C(=O)N2C(C(=O)[O-])=C(C[n+]3ccn4c(C(C)C)cc(C(C)C)c4c3)CS[C@H]12)c1csc(N)n1 [Ex. 36, 7-β-[(Z)-2-(2-aminothiazol-4-yl)-2-methoxyiminoacetamido]-3-(6,8-diisopropyl-pyrrolo[1,2-a]pyrazinium-2-yl)methyl-3-cephem-4-carboxylate] |
| 0.05 (≈ 0.0845 µM) | 0.39 (≈ 0.659 µM) | 0.78 (≈ 1.32 µM) | 0.1 (≈ 0.169 µM) | 3.13 (≈ 5.29 µM) | 0.2 (≈ 0.338 µM) | 0.012 (≈ 0.0203 µM) | 0.78 (≈ 1.32 µM) | 0.1 (≈ 0.169 µM) | 0.1 (≈ 0.169 µM) | 0.39 (≈ 0.659 µM) | 0.78 (≈ 1.32 µM) | 0.05 (≈ 0.0845 µM) | 0.78 (≈ 1.32 µM) | 0.012 (≈ 0.0203 µM) | 0.2 (≈ 0.338 µM) | 3.13 (≈ 5.29 µM) | 0.2 (≈ 0.338 µM) | 1.56 (≈ 2.63 µM) | 0.05 (≈ 0.0845 µM) | CO/N=C(\C(=O)N[C@@H]1C(=O)N2C(C(=O)[O-])=C(C[n+]3ccn4c(CO)ccc4c3C)CS[C@H]12)c1nc(N)sc1Cl [Ex. 58, 7-β-[(Z)-2-(2-amino-5-chlorothiazol-4-yl)-2-methoxyiminoacetamido]-3-(6-hydroxymethyl-1-methylpyrrolo[1,2-a]-pyrazinium-2-yl)methyl-3-cephem-4-carboxylate] |
